Experiment [1] addresses T1, Alpha-1A adrenergic receptor (Homo sapiens, UniProt P35348).
T1 sequence (P35348 whole entry): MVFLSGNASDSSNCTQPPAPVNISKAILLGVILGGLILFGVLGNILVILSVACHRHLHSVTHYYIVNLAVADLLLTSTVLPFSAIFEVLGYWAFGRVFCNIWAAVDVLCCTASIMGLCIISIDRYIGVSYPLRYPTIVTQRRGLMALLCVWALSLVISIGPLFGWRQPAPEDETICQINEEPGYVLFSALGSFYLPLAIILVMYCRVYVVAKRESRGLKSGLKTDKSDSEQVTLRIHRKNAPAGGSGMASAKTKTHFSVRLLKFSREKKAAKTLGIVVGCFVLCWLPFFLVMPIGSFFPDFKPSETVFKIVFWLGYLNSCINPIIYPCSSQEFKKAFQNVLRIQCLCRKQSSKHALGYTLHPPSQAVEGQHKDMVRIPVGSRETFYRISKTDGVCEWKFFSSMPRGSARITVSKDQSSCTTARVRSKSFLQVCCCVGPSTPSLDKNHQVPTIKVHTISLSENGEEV

Experiment [2] deals with T2, D(1A) dopamine receptor (Homo sapiens, UniProt P21728).
T2 sequence (P21728 whole entry): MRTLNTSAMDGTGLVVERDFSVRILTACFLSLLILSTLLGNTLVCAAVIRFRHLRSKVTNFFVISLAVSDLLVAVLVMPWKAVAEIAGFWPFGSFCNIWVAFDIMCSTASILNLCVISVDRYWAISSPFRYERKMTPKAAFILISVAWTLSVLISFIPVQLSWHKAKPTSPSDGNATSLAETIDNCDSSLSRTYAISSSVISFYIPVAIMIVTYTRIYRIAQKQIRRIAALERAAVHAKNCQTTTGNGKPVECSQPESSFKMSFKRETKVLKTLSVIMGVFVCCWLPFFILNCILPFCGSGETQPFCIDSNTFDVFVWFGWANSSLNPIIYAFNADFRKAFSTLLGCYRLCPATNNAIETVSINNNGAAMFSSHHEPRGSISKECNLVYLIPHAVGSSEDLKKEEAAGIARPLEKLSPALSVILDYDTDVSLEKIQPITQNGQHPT
Experiment [3] addresses Beta-3 adrenergic receptor (Homo sapiens, UniProt P13945).
For the next experiment, the target named is T3, B1 bradykinin receptor (Homo sapiens, UniProt P46663).
T3 sequence (P46663 whole entry): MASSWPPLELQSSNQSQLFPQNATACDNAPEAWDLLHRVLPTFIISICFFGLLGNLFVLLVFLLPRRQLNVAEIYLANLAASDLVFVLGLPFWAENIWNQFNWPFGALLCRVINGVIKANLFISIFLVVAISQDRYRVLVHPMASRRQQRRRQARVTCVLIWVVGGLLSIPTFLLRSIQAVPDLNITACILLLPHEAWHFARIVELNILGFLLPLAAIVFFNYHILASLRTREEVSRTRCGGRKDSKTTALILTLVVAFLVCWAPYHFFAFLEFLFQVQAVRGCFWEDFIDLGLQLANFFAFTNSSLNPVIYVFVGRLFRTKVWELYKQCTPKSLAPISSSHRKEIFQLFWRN

Experiment [4] deals with Voltage-dependent N-type calcium channel subunit alpha-1B (Rattus norvegicus, UniProt Q02294). In kind it is functional.
Sequence of Voltage-dependent N-type calcium channel subunit alpha-1B (Q02294 whole entry): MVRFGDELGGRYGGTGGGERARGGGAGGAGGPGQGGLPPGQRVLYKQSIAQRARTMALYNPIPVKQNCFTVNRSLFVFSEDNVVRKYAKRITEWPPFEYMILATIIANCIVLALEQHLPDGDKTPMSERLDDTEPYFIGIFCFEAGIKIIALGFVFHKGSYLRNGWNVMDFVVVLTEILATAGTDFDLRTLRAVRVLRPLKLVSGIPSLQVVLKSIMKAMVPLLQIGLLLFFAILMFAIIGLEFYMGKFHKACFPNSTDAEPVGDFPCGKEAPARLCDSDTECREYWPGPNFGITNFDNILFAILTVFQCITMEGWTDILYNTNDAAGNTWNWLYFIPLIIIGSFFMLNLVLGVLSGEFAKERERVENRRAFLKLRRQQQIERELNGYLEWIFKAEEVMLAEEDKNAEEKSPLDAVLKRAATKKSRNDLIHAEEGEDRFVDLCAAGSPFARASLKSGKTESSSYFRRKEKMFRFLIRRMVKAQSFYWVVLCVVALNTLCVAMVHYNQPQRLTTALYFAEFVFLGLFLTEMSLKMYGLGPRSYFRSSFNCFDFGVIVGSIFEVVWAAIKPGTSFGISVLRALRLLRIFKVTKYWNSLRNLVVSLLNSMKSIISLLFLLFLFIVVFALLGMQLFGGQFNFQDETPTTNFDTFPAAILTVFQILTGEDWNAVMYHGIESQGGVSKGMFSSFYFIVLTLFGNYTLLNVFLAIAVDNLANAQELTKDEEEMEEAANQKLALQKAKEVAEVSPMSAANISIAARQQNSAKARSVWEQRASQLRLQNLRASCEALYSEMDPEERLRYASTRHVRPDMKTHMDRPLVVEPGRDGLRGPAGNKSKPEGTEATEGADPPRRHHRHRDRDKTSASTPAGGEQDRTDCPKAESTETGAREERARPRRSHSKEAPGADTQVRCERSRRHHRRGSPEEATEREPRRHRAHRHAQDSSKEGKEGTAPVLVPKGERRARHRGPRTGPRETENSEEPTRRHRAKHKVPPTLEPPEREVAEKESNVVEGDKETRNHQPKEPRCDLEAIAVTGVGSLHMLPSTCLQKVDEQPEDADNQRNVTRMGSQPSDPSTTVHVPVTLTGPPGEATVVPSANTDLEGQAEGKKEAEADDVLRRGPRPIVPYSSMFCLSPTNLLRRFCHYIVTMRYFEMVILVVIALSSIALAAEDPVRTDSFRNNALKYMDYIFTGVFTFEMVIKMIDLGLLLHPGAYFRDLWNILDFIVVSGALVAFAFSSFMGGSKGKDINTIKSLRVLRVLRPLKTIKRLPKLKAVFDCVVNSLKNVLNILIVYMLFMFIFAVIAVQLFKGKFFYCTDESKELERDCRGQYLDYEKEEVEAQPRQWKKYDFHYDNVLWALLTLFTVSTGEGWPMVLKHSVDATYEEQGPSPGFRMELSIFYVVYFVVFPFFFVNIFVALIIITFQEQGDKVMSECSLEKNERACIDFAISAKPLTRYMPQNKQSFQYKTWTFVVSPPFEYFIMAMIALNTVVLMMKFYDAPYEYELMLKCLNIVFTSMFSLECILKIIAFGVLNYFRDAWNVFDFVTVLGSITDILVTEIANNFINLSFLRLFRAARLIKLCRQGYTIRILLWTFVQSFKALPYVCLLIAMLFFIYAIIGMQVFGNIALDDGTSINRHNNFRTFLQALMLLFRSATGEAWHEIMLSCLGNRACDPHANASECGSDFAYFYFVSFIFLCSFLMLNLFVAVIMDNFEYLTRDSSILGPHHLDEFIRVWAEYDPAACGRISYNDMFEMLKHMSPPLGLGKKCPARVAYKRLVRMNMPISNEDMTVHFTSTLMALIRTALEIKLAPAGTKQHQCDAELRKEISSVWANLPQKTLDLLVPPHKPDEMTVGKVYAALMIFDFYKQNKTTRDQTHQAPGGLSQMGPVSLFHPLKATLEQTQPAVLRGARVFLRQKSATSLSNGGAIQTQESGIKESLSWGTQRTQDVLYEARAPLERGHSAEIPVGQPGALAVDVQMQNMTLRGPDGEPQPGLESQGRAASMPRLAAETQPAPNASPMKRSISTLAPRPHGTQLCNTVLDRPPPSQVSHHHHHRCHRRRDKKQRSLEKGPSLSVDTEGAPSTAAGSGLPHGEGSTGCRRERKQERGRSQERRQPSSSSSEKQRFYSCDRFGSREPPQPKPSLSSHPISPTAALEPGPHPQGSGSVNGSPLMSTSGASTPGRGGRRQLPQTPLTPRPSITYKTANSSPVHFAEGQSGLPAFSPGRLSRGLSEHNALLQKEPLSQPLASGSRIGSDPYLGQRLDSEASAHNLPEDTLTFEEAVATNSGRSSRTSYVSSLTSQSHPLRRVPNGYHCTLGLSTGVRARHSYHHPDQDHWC
Experiment [5] has as its target T4, Endothelin receptor type B (Homo sapiens, UniProt P24530).
T4 sequence (P24530 whole entry): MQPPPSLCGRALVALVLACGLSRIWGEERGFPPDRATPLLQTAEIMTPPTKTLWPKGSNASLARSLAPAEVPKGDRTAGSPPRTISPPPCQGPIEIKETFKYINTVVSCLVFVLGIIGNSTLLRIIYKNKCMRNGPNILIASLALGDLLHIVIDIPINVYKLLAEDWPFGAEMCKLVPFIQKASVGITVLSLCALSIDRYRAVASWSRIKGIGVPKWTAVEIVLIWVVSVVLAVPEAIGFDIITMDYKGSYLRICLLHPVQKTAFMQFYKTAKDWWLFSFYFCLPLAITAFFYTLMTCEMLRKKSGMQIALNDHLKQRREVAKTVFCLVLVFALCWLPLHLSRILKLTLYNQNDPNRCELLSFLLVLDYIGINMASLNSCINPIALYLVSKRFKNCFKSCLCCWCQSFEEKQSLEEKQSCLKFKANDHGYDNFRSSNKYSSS

Another experiment addresses Estrogen receptor beta (Homo sapiens, UniProt Q92731).
For the next experiment, the target named is Glucagon receptor (Homo sapiens, UniProt P47871).
Sequence of Glucagon receptor (P47871 whole entry): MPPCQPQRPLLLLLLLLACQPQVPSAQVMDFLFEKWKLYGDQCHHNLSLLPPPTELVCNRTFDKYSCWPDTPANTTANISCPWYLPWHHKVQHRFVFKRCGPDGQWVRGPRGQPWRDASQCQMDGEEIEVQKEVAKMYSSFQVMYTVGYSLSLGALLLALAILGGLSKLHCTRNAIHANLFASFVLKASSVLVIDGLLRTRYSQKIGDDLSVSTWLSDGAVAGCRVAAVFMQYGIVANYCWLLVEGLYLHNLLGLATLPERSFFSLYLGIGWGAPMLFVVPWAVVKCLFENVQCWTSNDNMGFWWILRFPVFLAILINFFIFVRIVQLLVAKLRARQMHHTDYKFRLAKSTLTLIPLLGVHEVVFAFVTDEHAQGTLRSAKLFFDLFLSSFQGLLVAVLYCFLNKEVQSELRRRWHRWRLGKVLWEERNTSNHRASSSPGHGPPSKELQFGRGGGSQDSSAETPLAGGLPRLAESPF
The target in experiment [6] is T2, D(1A) dopamine receptor. The source holds these as a separate data set.
The target of the next experiment is T5, Thromboxane A2 receptor (Homo sapiens, UniProt P21731).
T5 sequence (P21731 whole entry): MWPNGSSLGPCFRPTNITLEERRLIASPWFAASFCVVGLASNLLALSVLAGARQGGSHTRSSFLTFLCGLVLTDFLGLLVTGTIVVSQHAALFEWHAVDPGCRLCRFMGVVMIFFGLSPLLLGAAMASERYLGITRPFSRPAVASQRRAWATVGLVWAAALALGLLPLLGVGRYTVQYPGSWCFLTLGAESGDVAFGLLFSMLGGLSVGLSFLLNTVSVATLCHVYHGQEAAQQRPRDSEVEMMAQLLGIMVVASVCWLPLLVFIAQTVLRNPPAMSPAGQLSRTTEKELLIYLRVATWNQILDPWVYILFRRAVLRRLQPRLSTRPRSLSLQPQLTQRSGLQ
Type of experiment: functional, cell-based.

Another experiment deals with T6, Androgen receptor (Rattus norvegicus, UniProt P15207).
T6 sequence (P15207 whole entry): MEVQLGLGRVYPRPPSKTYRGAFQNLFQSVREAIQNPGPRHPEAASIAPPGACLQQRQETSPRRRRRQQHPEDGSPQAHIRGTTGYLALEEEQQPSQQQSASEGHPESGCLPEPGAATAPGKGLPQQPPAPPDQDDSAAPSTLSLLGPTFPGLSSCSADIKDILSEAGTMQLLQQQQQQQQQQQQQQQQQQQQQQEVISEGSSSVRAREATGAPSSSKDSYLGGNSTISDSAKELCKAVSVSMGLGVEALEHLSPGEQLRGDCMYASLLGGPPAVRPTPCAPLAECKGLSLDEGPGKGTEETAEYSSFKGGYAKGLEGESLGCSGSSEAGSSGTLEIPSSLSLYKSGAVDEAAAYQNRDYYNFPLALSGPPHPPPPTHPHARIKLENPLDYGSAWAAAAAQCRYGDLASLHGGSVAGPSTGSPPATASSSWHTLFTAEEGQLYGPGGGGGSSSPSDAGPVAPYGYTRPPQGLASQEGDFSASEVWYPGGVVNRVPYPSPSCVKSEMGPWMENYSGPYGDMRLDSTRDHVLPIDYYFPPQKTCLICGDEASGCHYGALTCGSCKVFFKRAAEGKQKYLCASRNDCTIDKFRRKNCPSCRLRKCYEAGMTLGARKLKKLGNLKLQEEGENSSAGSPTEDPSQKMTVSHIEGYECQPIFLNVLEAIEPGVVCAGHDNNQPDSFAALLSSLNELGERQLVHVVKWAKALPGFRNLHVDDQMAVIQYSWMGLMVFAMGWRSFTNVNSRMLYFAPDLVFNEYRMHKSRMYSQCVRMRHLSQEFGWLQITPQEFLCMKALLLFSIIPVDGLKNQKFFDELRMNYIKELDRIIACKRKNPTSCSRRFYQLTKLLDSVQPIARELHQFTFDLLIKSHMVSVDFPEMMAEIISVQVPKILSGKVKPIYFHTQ
In kind it is functional.

We go through 24 compounds from ChEMBL document CHEMBL5291721, “A preclinical secondary pharmacology resource illuminates target-adverse drug reaction associations of marketed drugs” (Nat Commun, 2023).

SMILES strings stand for the structures.
Further: assay procedure not described here.

Sequence of Estrogen receptor beta (Q92731 whole entry): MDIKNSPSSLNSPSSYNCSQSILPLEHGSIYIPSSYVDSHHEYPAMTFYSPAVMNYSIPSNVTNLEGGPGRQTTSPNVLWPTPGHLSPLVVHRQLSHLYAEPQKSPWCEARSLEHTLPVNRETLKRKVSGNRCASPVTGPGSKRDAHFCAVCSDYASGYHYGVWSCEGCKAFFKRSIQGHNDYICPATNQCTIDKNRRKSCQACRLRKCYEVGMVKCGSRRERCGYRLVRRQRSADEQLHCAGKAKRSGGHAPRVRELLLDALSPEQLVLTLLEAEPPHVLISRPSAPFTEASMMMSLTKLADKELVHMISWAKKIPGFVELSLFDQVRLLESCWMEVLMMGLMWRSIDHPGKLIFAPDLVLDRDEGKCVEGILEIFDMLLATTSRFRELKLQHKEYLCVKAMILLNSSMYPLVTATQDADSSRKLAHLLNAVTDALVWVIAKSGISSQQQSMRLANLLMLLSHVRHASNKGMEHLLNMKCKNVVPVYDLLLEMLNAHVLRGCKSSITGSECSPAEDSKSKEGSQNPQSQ
Sequence of Beta-3 adrenergic receptor (P13945 whole entry): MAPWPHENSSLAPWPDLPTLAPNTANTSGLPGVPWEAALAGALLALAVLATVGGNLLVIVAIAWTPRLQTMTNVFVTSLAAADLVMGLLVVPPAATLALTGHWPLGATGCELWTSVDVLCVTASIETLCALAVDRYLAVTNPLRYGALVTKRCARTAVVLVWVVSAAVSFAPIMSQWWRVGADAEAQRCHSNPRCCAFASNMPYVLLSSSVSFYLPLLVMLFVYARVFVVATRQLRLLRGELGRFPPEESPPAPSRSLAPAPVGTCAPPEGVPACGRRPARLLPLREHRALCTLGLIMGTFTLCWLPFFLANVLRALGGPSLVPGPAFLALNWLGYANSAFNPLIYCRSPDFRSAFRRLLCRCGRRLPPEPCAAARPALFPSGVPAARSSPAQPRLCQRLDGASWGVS

The AC50 is the concentration giving half of the maximal activity seen. Regarding `O=C(O)[C@@H](S)[C@@H](S)C(=O)O`, the AC50 (in [1]; at D(1A) dopamine receptor [2]) was over 30 µM in each case.
On to `CCOC(=O)[C@H](CCc1ccccc1)N[C@@H](C)C(=O)N1Cc2ccccc2C[C@H]1C(=O)O`, for which the AC50 in experiment [3] is over 30 µM; on B1 bradykinin receptor, over 30 µM; in experiment [4], over 10 µM; in experiment [5], over 30 µM; on Estrogen receptor beta, over 30 µM; at Glucagon receptor, over 30 µM. The same compound returned an AC50 on D(1A) dopamine receptor [6] of over 10 µM.
Take `CC#CC(=O)N1CCC[C@H]1c1nc(-c2ccc(C(=O)Nc3ccccn3)cc2)c2c(N)nccn12` [ACALABRUTINIB]: the AC50 (in experiment [1]; on D(1A) dopamine receptor [2]) was over 30 µM in each case.
In the case of `CN(C)CCC=C1c2ccccc2CCc2ccccc21` [AMITRIPTYLINE], the AC50 is over 30 µM in experiment [3]; over 30 µM on B1 bradykinin receptor; over 10 µM in experiment [4]; over 30 µM in experiment [5]; over 30 µM on Estrogen receptor beta; over 30 µM at Glucagon receptor. Moreover, the AC50 on D(1A) dopamine receptor [6] was 0.452 µM; at Thromboxane A2 receptor it was over 30 µM.
On to `CC(=O)Oc1ccccc1C(=O)O` [ASPIRIN], for which the AC50 is over 30 µM in [3]; over 30 µM at B1 bradykinin receptor; over 10 µM in experiment [4]; over 30 µM in experiment [5]; over 30 µM on Estrogen receptor beta; over 30 µM on Glucagon receptor. Further, the AC50 at D(1A) dopamine receptor [6] was over 10 µM; at Thromboxane A2 receptor it was over 30 µM.
On to `Cn1cnc2c(F)c(Nc3ccc(Br)cc3F)c(C(=O)NOCCO)cc21` [BINIMETINIB], for which the AC50 at Androgen receptor and at Thromboxane A2 receptor was over 30 µM in each case.
For the compound `CCN(CC)CCn1c(=O)c(Cc2ccc(OC)cc2)nc2ccccc21` [CAROVERINE], at Androgen receptor, the AC50 is over 30 µM.
Regarding `O=C(Cc1cccs1)N[C@@H]1C(=O)N2C(C(=O)[O-])=C(C[n+]3ccccc3)CS[C@H]12` [CEPHALORIDINE], the AC50 (in experiment [1]; at D(1A) dopamine receptor [2]) was over 30 µM each time.
For the compound `CN(C)CCCC1(c2ccc(F)cc2)OCc2cc(C#N)ccc21` (stereo unspecified) [CITALOPRAM], the AC50 in experiment [3] is over 30 µM; on B1 bradykinin receptor it was over 30 µM; in experiment [4], over 10 µM; in experiment [5], over 30 µM; on Estrogen receptor beta, over 30 µM; at Glucagon receptor, over 30 µM.
As to `C[C@H](Nc1ncnc2[nH]cnc12)c1cc2cccc(Cl)c2c(=O)n1-c1ccccc1` [DUVELISIB], the AC50 (in experiment [1]; at Androgen receptor; on D(1A) dopamine receptor [2]) was over 30 µM throughout.
Regarding `C[C@]12CCC(=O)C=C1CC[C@H]1[C@@H]3CC[C@](O)(C(=O)CO)[C@@]3(C)C[C@H](O)[C@@]12F` [FLUDROCORTISONE], the AC50 in [3] was over 30 µM; on B1 bradykinin receptor it was over 30 µM; in [4], over 10 µM; in [5] it was over 30 µM; at Estrogen receptor beta, over 30 µM; on Glucagon receptor, over 30 µM. For the same compound, the AC50 on D(1A) dopamine receptor [6] is over 10 µM.
With `NCC1(CC(=O)O)CCCCC1` [GABAPENTIN], the AC50 in [3] is over 30 µM; on B1 bradykinin receptor, over 30 µM; in [5], over 30 µM; on Glucagon receptor it was over 30 µM; on D(1A) dopamine receptor [6], over 10 µM; at Thromboxane A2 receptor, over 30 µM.
With `OCCOCCN1CCN(C(c2ccccc2)c2ccc(Cl)cc2)CC1` (stereo unspecified) [HYDROXYZINE], the AC50 was over 30 µM in experiment [3]; over 30 µM on B1 bradykinin receptor; over 10 µM in experiment [4]; over 30 µM in [5]; over 30 µM on Glucagon receptor; over 10 µM at D(1A) dopamine receptor [6].
Compound `C[C@@H](O)[C@H]1C(=O)N2C(C(=O)O)=C(SCCN=CN)C[C@H]12` [IMIPENEM ANHYDROUS] showed an AC50 at Thromboxane A2 receptor of over 300 µM.
`Nc1nnc(-c2cccc(Cl)c2Cl)c(N)n1` [LAMOTRIGINE]: the AC50 in [3] is over 30 µM; on B1 bradykinin receptor, over 30 µM; in experiment [4] it was over 10 µM; in [5], over 30 µM; at Estrogen receptor beta it was over 30 µM; on Glucagon receptor, over 30 µM. The same compound had an AC50 at D(1A) dopamine receptor [6] of over 10 µM.
At Androgen receptor, `O=C1[C@@H]2[C@H]3CC[C@H](C3)[C@@H]2C(=O)N1C[C@@H]1CCCC[C@H]1CN1CCN(c2nsc3ccccc23)CC1` [LURASIDONE] returned an AC50 of 5.7 µM.
`CCCCCCO[C@@H](C)c1cccc(-c2csc(NC(=O)c3cc(Cl)c(/C=C(\C)C(=O)O)c(Cl)c3)n2)c1OC` [LUSUTROMBOPAG]: the values for the AC50 (in experiment [1]; at D(1A) dopamine receptor [2]) were over 30 µM and 5.53 µM, respectively.
The compound `CO[C@@H]1[C@@H](OC(N)=O)[C@@H](O)[C@H](Oc2ccc3c(O)c(NC(=O)c4ccc(O)c(CC=C(C)C)c4)c(=O)oc3c2C)OC1(C)C` [NOVOBIOCIN] displayed an AC50 on Thromboxane A2 receptor of over 30 µM.
Take `C#CCN(C)Cc1ccccc1` [PARGYLINE]: the AC50 (in [1]; at D(1A) dopamine receptor [2]) was over 30 µM in each case.
Take `CC(=O)SCC(Cc1ccccc1)C(=O)NCC(=O)OCc1ccccc1` (stereo unspecified) [RACECADOTRIL]: the values for the AC50 (in experiment [3]; in experiment [4]; at D(1A) dopamine receptor [6]) were over 30 µM, over 10 µM and over 10 µM, respectively.
Consider `CC(C)(CO)c1cc2cc(NC(=O)C3(c4ccc5c(c4)OC(F)(F)O5)CC3)c(F)cc2n1C[C@@H](O)CO` [TEZACAFTOR], for which, on Androgen receptor, the AC50 is over 30 µM.
For `Cc1c(C)c2c(c(C)c1O)CCC(C)(COc1ccc(CC3SC(=O)NC3=O)cc1)O2` (stereo unspecified) [TROGLITAZONE], the AC50 (in experiment [3]; on Androgen receptor; on B1 bradykinin receptor; in experiment [5]; on Estrogen receptor beta; at Glucagon receptor) was over 30 µM in each case.
The compound `c1cnc2cc3c(cc2n1)[C@@H]1CNC[C@H]3C1` [VARENICLINE] came in with an AC50 at Thromboxane A2 receptor of over 30 µM.
On the same count and under the same terms, next, `Nc1c2c(nc3ccccc13)CCCC2O` (stereo unspecified) [VELNACRINE]: over 30 µM.
